Data from patent US20250002527A1, “STEROID COMPOUND AND CONJUGATE THEREOF” (DUALITY BIOLOGICS (SUZHOU) CO., LTD., priority 2021, published 2025).
“And” between values parts separate entries of the source, which are not always exact repeats. Equal entries are not always repeated.

Target: T1, GR (Homo sapiens, UniProt P04150)
T1 construct: expressed in transfected cells; host or cells: HEK293
T1 sequence (P04150 1-777): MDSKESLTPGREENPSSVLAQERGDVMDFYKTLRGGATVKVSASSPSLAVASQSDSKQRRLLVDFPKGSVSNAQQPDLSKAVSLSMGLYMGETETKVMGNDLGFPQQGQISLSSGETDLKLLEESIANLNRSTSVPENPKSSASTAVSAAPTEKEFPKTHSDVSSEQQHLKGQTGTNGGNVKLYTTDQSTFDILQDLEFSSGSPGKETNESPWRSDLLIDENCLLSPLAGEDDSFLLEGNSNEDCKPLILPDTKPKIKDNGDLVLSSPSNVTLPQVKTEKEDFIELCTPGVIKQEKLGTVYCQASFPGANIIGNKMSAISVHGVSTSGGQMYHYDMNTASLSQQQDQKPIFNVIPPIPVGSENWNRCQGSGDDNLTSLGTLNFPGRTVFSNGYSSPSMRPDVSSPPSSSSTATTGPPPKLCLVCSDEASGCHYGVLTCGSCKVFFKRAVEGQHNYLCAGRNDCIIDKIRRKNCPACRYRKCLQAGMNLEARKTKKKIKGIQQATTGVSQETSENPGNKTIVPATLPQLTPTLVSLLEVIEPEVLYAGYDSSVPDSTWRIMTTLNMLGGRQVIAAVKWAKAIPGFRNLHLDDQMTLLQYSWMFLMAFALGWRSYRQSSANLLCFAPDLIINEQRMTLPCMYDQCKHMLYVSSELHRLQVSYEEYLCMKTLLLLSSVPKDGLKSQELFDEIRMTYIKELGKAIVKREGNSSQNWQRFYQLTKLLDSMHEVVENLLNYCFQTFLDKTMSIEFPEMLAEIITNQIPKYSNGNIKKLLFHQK
Assay: GR luciferase reporter gene elution experiment
Type: cell-based
Design: concentration or dose not given beside the values
Conditions: then 24 hours
Experimental: The compounds of the present application were evaluated for their ability to continue activation upon binding to GR.
HEK293 cells were cultured in DMEM+10% FBS medium in a carbon dioxide incubator humidified at 37° C. at 5% carbon dioxide.
• 1) HEK293 cells were trypsinized, and the HEK293 cell resuspension was adjusted to 200,000 cell/mL in medium (96 well plate: 100 μL/well). • 2) Transfection reagent mixtures were prepared according to the table below, mixed well and left at room temperature for 20 minutes.
• 3) The prepared transfection mixtures were added to 10 mL of the cell density-adjusted resuspension, mixed well by turning the mixtures upside down, and seeded into a 96-well plate at a volume of 100 μL/well. • 4) The 96-well plate was incubated in a humidified incubator at 37° C. and 5% carbon dioxide for 24 hours.
The test plate was detected using the Dual-Glo Luciferase Assay System kit from Promega, and the fluorescence signal of Firefly Luciferase and the fluorescence signal of Renilla Luciferase were read using Enspire, respectively.
• 1) The final measurement value was a normalized value “F/R” obtained by dividing the Firefly Luciferase fluorescent signal by the Renilla Luciferase fluorescent signal. • 2) The data were copied and pasted into Excel, and the activation rate was obtained through an equation.
[formula] • 3) The data were imported into MS Excel and subjected to curve fitting by using XLFit excel add-in version 5.4.0.8 to obtain an EC50 value.
Y is the agonism and X is the concentration of the compound.

C[C@]12C=CC(=O)C=C1CC[C@@H]1[C@@H]2[C@@H](O)C[C@@]2(C)[C@H]1C[C@H]1O[C@@H](c3ccc(Cc4ccc(CO)cc4)cc3)O[C@]12C(=O)CO [Compound 4]
Wash off time (Rate of activation %) 15 min (wash off after 15 min): 127.6% and 129.6% | Wash off time (Rate of activation %) 30 min (wash off after 30 min): 127.0% and 128.5% | Wash off time (Rate of activation %) 1 h (wash off after 1 h): 164.6% and 106.6% | Wash off time (Rate of activation %) 2 h (wash off after 2 h): 131.3% and 124.8% | Wash off time (Rate of activation %) 4 h (wash off after 4 h): 139.9% and 125.3%
